Assay results as given in EP1542672B1, “R-BAMBUTEROL, ITS PREPARATION AND THERAPEUTIC USES” (priority 2002, dated 2004).

Assays:
[1] = tested on: hyperlipidemia mice; test: Lipid lowering effects in Tyloxapol-induced hyperlipidemia mice; assay type: in vivo, Kunming strain; details: plasma; 10 mg/kg oral once a day for four days; Tyloxapol 400 mg/kg i.p.; blood 24 hours after Tyloxapol
Procedure: Test method: Male and […] mice, Kunming strain, 35 each, weight 18-22 grams, were used. Food and water were available ad libitum. The animals were randomized into 7 groups (n=10). Groups of animals were administered orally, via a stomach tube, vehicle (distilled water, two groups), R-bambuterol hydrochloride (10 mg/kg and 5 mg/kg), racemic bambuterol hydrochloride (10 mg/kg and 5 mg/kg) and simvastatin (10 mg/kg) once a day for four days. With the exception of one vehicle- treated group (as control), Tyloxapol (400 mg/kg, Sigma Chemical Co.) was injected into the peritoneal cavity of the mice of all groups immediately after the last treatment on the fourth day in order to induce hyperlipidemia. All the animals were fasted overnight prior to the injection of Tyloxapol. Blood samples were collected by cardiac puncture 24 hours after the injection of Tyloxapol. The blood samples were processed to plasma, and concentration of triglycerides (TG), cholesterol (CHO), high density lipoprotein (HDL), low density lipoprotein (LDL) and very low density lipoprotein (VLDL) were measured with an auto-blood analyzer (Olympic, Japan).

[2] = tested on: Rats (Sprague Dawley); test: Cardiovascular effects in anesthetized rats (HR, MBP, Max dp/dt); assay type: in vivo; details: 30 mg/kg intravenously
Source text: Test method: Rats (Sprague Dawley, 250-300g) were randomized into two groups (n=6, equal sexes). After anesthesia, plastic tubing was introduced into a carotid artery of each animal and connected to pressure transducers to record mean artery pressure (MBP) and heart rate (HR). Another tube was introduced into the left ventricular chamber via the another carotid artery and connected to a pressure transducer. Left ventricular systolic pressure (LVSP) and the first order of differential of LVSP (dp/dt) as an index for inotropic effects were recorded. R-Bambuterol and racemic bambuterol hydrochloride were dissolved in saline and administrated intravenously at 30 mg/kg to each animal. The HR, MBP and Max dp/dt were measured before treatment (control) and after the treatments when the maximum response occurred, and 20 min after treatment as indication of recovery.

[3] = bronchospasmolytic activity upon oral administration; cited from earlier work
[4] = 20 min after treatment (recovery)
[5] = change from pre-treatment control at maximum response

SMILES: CN(C)C(=O)Oc1cc(OC(=O)N(C)C)cc(C(O)CNC(C)(C)C)c1 (racemic) [bambuterol]
- CHO lipid levels [1]: 125.2 ± 19.8 mg/dL
- HDL lipid levels [1]: 50 ± 17 mg/dL
- LDL lipid levels [1]: 30 ± 6 mg/dL
- TG lipid levels [1]: 148 ± 45 mg/dL
- VLDL lipid levels [1]: 44.2 ± 14.4 mg/dL
- HR, 20min after Δ [2, 4]: 40±9 Beat/min
- MBP, 20min after Δ [2, 4]: 1.1±0.4 Kpa
- MBP, 20min after Δ, % of control [2, 4]: 8.3%
- Maxdp/dt, 20min after Δ [2, 4]: 13±3.8 Kpa/sec
- Maxdp/dt, 20min after Δ, % of control [2, 4]: 4.8%
- HR, 20min after Δ, % of Control ([2]; 20 min after treatment (recovery), listed as Rac-Bambuterol): 9.5%
- HR, 20min after Δ, % of Control ([2]; 20 min after treatment (recovery), listed as racemic bambuterol hydrochloride): 9.5%
- HR, Treatment Δ, % of Control ([2]; at maximum response): 20.6%
- MBP, Treatment Δ, % of control ([2]; at maximum response): 31.6%
- Maxdp/dt, Treatment Δ, % of control ([2]; at maximum response, listed as Rac-Bambuterol): 24.4%
- Maxdp/dt, Treatment Δ, % of control ([2]; at maximum response, listed as racemic bambuterol): 24.4%
- HR, Treatment Δ [2, 5]: 85.8±5 Beat/min
- MBP, Treatment Δ [2, 5]: 4.2±0.5 Kpa
- Maxdp/dt, Treatment Δ [2, 5]: 65.4±9 Kpa/sec
- duration of activity [3]: more than 12 hours
